From patent publication US20260137809A1, “GENE THERAPY VECTORS FOR TREATMENT OF CANCER” (Siren Biotechnology, Inc., priority 2022, published 2026)

What was measured:
[1] = system: X^on induction system; assay: Dose studies with various inducer molecules, AAV-CAG-X^on-eGFP fluorescence (Example 3); type: cell-based; conditions: cells transduced with 1e^6 vg/cell AAV-CAG-X^on-eGFP; inducer added after 24 hours at 4 concentrations
Procedure: Briefly, cells were seeded in black 96-well plates for 24 hours and transduced with 1e^6 vg/cell AAV-CAG-X^on-eGFP as described in Example 1. After 24 hours, each inducer was added directly into the cell media at 4 different concentrations each. Cells expressing the eGFP payload were visualized by fluorescent live imaging (20× magnification) after induction with branaplam (FIG. 20A) or RG7800 (FIG. 20B). Cells were counter-stained with […] Hoechst to identify nuclei and determine total cell counts for normalization. The number of eGFP-positive cells as well as the green fluorescence intensity was measured for each well and each condition up to 9 hours post-induction to determine the kinetics of the payload expression post-induction (FIGS. 20C-20H).

[2] = system: X^on splicing control element; assay: Kinetics of eGFP induction with branaplam and RG7800-HCl, live cell imaging (Example 4); type: cell-based; conditions: for induced eGFP expression level compared with the constitutive construct: AAV-CAG-X^on-eGFP versus constitutive AAV-CAG-eGFP, inducer at optimal concentrations; for course of eGFP payload expression after induction: AAV-CAG-X^on-eGFP, monitored for 14, 28 or 84 hours
Procedure: Cells were seeded in 96-well plates for 24 hours and transduced with AAV-CAG-X^on-eGFP or constitutive AAV-CAG-eGFP as the positive control, and treated with or without branaplam or RG7800-HCl. Fluorescent eGFP payload expression was monitored for a total of 14 hours (FIGS. 21A-21D) or 28 hours (FIGS. 22A-22D) by live cell imaging.

[3] = system: X^on splicing element; assay: Inducible AAV-GFP / AAV-eGFP expression after the inducer branaplam, live fluorescent imaging (Example 2); type: cell-based, human; conditions: HEK293-T cells transduced with AAV-CAG-X^on-eGFP, branaplam 125 nM
From the text: Adherent human HEK293-T cells were transduced with inducible AAV-GFP, followed by fluorescent imaging for GFP expression pre- and post-administration of an inducer molecule (e.g., branaplam). The data is seen in FIG. 17.
Adherent human HEK293-T cells were transduced with AAV-GFP at varying dosages, followed by administration of an inducer molecule (e.g., branaplam), and monitored for GFP expression over several hours to determine initial expression kinetics at different AAV dosages in vitro. The data is seen in FIG. 19.
In a similar set of experiments, HEK293-T cells were plated in a 96-well plate for 24 hours and transduced with a broad range of multiplicity of infection (MOI) using a constitutively-expressing payload expression construct, AAV-CAG-eGFP, to determine the necessary MOI for detectable eGFP expression prior to advancing to the inducible constructs described in Example 1. MOIs tested ranged from 3E4 to 4E6 vg/cell. Transduction efficacy was assessed by measuring the eGFP payload expression from transduced cells using a fluorescent microscopy imager (FIG. 18). Once an MOI was selected, the inducible AAV-CAG-X^on-eGFP was tested with an inducer molecule, branaplam at 125 nM, 24 hours post-transduction. […] Control cells were transduced with AAV-CAG-X^on-eGFP without the addition of an inducer. […]

[4] = system: X^on splicing control element; assay: ON/OFF control of fLuc expression with cycles of branaplam (Example 6); type: cell-based, human; conditions: HEK293-T, AAV-CAG-X^on-fLuc, MOI 2.5E5 vg/cell
Procedure: HEK293-T cells were transduced with AAV and then branaplam, and after 24 hours of induction with branaplam, supernatants were harvested and assayed for luciferase expression, and the media was replaced with fresh medium without branaplam. Supernatants for the next timepoint were then harvested after 24 hours in the condition without branaplam, and the cycle was repeated (e.g., one or two or more times; FIG. 25A). Briefly, HEK293-T cells were transduced with an MOI of 2.5E5 vg/cell of AAV-CAG-X^on-fLuc (FIG. 25B) for 24 hours, followed by addition of branaplam at 3 different concentrations at hour 24 for an additional 24 hours (“ON”). Supernatants were then harvested for the measurement of fLuc, and media was replaced with fresh media lacking branaplam (“OFF”) for 24 hours. Supernatants were harvested after 24 hours in the OFF state. fLuc luminescent signal was measured for each cycle in sample supernatants at each time point and condition described (FIG. 25C).

[5] = system: X^on splicing control element; assay: ON/OFF control of hIFNβ expression with branaplam, ELISA of supernatants (Example 7); type: cell-based, human; conditions: HEK293-T, AAV-CAG-X^on-hIFNβ, MOI 2.5e^5 vg/cell
Procedure: Briefly, HEK293-T cells were transduced with an MOI of 2.5e^5 vg/cell of AAV-CAG-X^on-hIFNβ or constitutive AAV-CAG-hIFNβ for 24 hours. 24 hours post-transduction with AAV, branaplam was added to the cell media to induce human IFNβ (hIFNβ) expression (“ON”). After 24 hours, media supernatants were harvested for payload measurement and fresh media lacking Branaplam (“OFF”). 24 hours later, media supernatants were harvested for payload detection (FIG. 25A). Amounts of hIFNβ were measured in picograms per milliliter (pg/mL) (FIG. 26A) using an ELISA kit for hIFNβ in supernatants before and after induction with branaplam, and after removal of branaplam. FIG. 26B depicts the expression of hIFNβ following transduction with AAV-CAG-X^on-hIFNβ normalized to the levels of expression obtained with the constitutive payload.

Compound	active concentration for induction of eGFP payload expression [1] [µM]	induced eGFP expression level compared with the constitutive construct [2]	course of eGFP payload expression after induction [2]	detectable GFP and eGFP expression, earliest time post-induction ([3]; 24 hours post-transduction, imaging every 30 minutes) [h]	course of GFP and eGFP signal post-induction ([3]; read up to 5 hours)	fLuc expression in OFF conditions (without branaplam for 24 hours) [4]	re-induction of fLuc expression achievable and detectable, number of cycles [4]	dose of branaplam needed to mediate reliable payload expression and cycle control ([4]; 3 concentrations, 24 hours ON / 24 hours OFF) [nM]	number of repeat ON/OFF cycles on the same transduced cells [5]	time to induced expression of hIFNβ after induction ([5]; ELISA of supernatant) [h]	time until hIFNβ expression stopped after removal of branaplam ([5]; ELISA of supernatant) [h]
CCc1nc(C)cn2nc(-c3cc(=O)n4cc(C5CCN(C)CC5)cc(C)c4n3)cc12.Cl [RG7800-HCl]	20	nearly the same levels of expression	continued to increase over the first 12 hours, followed by a slower increase to 24 hours	–	–	–	–	–	–	–	–
CCc1nc(C)cn2nc(-c3cc(=O)n4cc(C5CCN(C)CC5)cc(C)c4n3)cc12 [RG7800]	20	–	–	–	–	–	–	–	–	–	–
CC1(C)CC(Oc2ccc(-c3ccc(-c4cn[nH]c4)cc3O)nn2)CC(C)(C)N1 [branaplam]	–	nearly the same levels of expression	continued to increase over the first 12 hours, followed by a slower increase to 24 hours	3	continuing to increase up to 5 hours post-induction	reliably reduced expression of the fLuc	at least 2 full induction cycles	≥ 200	up to 2 repeat cycles	≤ 24	≤ 24
